Measurements published in patent US20060116325A1, “Methods and compositions for inhibiting hiv-coreceptor interactions” (priority 2001, published 2006).

Key:
HIV-1IIIB = HIV-1IIIB infection of PBMC, p24 ELISA; assay type: cell-based; conditions: for concentration at which significant inhibition of HIV-1 infection was detected (as low as): HIV-1IIIB, PBMC; for inhibition of T cell-tropic HIV-1 infection of PBMCs (p24): peptide 1 hr before HIV-1IIIB, p24 after 48 hr, FIG. 4
Experimental: Peripheral blood mononuclear cells were treated with designated concentrations of peptide for a period of 1 hr prior to addition of HIV-1IIIB. After 2 hr, cells were washed, and viral replication was determined after 48 hr by analysis of p24 levels. Results are representative of 4 independent experiments.
PBMCs were obtained from whole blood of normal donors and isolated by Ficoll-Paque Plus (Pharmacia Biotech, Piscataway, N.J.) density gradient centrifugation, and plated at a cell density of 2×10^6 cells/ml. Monocyte-derived macrophages (MDM) were generated from adherent human peripheral blood mononuclear cells by culture for 7 days with M-CSF (100 ng/ml). Cultures were maintained in RPMI-1640 medium (Life Technologies, Rockville, Md.) supplemented with 10% heat-inactivated endotoxin-free FCS (Hyclone, Logan, Utah), 10 μg/ml gentamicin, and 1 mM glutamine. Cells were treated with designated concentrations of the exemplary peptides 15K or 15D, and after 1 hr cells were infected with HIV-1IIIB (T cell tropic) or HIV-1JRFL (monocyte tropic) at an multiplicity of infection (MOI) of 0.1. After 2 hr, cells were washed, and cultured for additional 48-72 hr, followed by analysis of HIV replication as determined by quantification of accumulated p24 in the supernatant. The production of p24 was determined by conventional sandwich ELISA, using ELISA plates pre-coated with capture anti-p24 antibodies provided by the AIDS Vaccine Program (SAIC Frederick, NCI-FCRDC, Frederick, Md.). The captured p24 antigen was detected using rabbit anti-HIV-1 anti-p24 antibody, and a secondary goat anti-rabbit IgG (peroxidase-labeled) antibody. The captured p24 protein was detected using a 3,3′,5,5′-tetramethylbenzidine and hydrogen peroxide detection system (KPL Laboratories, Gaithersburg, Md.). The reaction was read spectrophotometrically at 450 nm. No cytotoxicity was detectable following treatment of PBMC with the peptides even at a concentration of 100 μg/ml.
In view of the foregoing binding inhibition studies, and considering the homology between the 15K and 15D peptides and the CXCR4 ligand SDF-1α, it was further undertaken to determine the capacity of the synthetic peptides to inhibit CXCR4 co-receptor function. In particular, experiments were carried out to assess the ability of 15K or 15D to alter the infection of PBMCs with the T cell-tropic […] strain. […] Significant inhibition of HIV-1 infection was detected with concentrations of peptides as low as 10 ng/ml.

CCR5 = CCR5 (Homo sapiens, UniProt P51681); test: Binding of anti-CCR5 antibody 2D7 to HEK293/CCR5 cells (flow cytometry); parameters: expressed in transfected cells; host or cells: HEK-293; conditions: 0.1 mM peptide, 45 min 22° C.
Experimental: CEMx174 cells were pelleted and resuspended at 10^6 cells/ml in PBS containing 1% BSA and 0.1% sodium azide (FACS buffer). Cells were then preincubated with designated concentrations of peptides or SDF-1-α (1 μg/ml) at 22° C. for 60 min. FITC-labeled anti-human CXCR4 antibody (clone 12G5, BD PharMingen, San Diego, Calif.) was added to the cells per the manufactures instructions and further incubated at 22° C. for 40 minutes. Cells were extensively washed with FACS buffer and analyzed using a FACS Calibur flowcytometer (Becton Dickinson). HEK/CCR5 cells were suspended in Dulbecco's PBS containing 1% FCS and 0.05% NaN3 (10^4 cells in 100 μl) and incubated with or without 5 μg of MIP-1β (PeproTech, Rocky Hill, N.J.), 0.1 mM peptide 15D or 15K for 45 min at 22° C. Cells were then treated with FITC-conjugated anti-human CCR5 antibody (2D7; BD PharMingen, San Diego, Calif.), and incubated for 30 min at 22° C. Cells were washed twice, and analyzed using a FACScan flow cytometer (Becton Dickinson Immunocytometry Systems, San Jose, Calif.).
The effect of the exemplary peptides 15K and 15D on the binding of 2D7 antibodies to CCR5 was assayed to further evaluate the mechanism of anti-coreceptor activity of the peptides. […]
The effects of peptides 15D and 15K on 2D7 antibody binding to HEK293/CCR5 cells were analyzed by flow cytometry.

Chain of CCR5 (P51681 whole entry): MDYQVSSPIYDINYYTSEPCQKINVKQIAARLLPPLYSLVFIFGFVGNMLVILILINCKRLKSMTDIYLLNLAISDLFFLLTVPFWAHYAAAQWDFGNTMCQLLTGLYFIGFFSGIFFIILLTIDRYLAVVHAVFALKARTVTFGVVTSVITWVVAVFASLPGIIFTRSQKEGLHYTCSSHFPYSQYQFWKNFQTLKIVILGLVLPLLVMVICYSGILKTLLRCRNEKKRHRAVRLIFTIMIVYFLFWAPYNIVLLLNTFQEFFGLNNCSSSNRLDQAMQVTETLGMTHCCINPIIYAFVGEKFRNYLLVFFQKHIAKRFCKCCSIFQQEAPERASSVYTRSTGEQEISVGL

Row | Substance | concentration at which significant inhibition of HIV-1 infection was detected (as low as) (HIV-1IIIB) [ng/mL] | inhibition of T cell-tropic HIV-1 infection of PBMCs (p24) (HIV-1IIIB) | anti-HIV-1 activity of 15D in comparison with 15K (HIV-1IIIB; some experiments, data not shown, virus strain not stated) | effect on 2D7 anti-CCR5 antibody binding (CCR5)
1 | I R K A H C N I S R A D W N D [Peptide 15D] | 10 | significantly reduced HIV-1 infection | higher anti-HIV-1 activity | No significant effect
2 | IRKAHCNISRAKWND [Peptide 15K] | 10 | significantly reduced HIV-1 infection |  | No significant effect
